Converted amounts (≈) assume the structure as drawn. The source made the active and inactive calls. The calls are words filed in the database; no cut-off is given here.
Tests used:
SK-OV-3 = assay: Cytotoxicity against human SKOV3 cells after 48 hrs by sulforhodamine B assay; type: functional; settings: SK-OV-3, 48 h, read-out: ED50 (the source's name)
XF498 = assay: Cytotoxicity against human XF498 cells after 48 hrs by sulforhodamine B assay; type: functional; settings: XF498, 48 h, read-out: ED50 (the source's name)
A549 = assay: Cytotoxicity against human A549 cells after 48 hrs by sulforhodamine B assay; type: functional; settings: A549, 48 h, read-out: ED50 (the source's name)
HCT-15 = assay: Cytotoxicity against human HCT15 cells after 48 hrs by sulforhodamine B assay; type: functional; settings: HCT-15, 48 h, read-out: ED50 (the source's name)
SK-MEL-2 = assay: Cytotoxicity against human SK-MEL-2 cells after 48 hrs by sulforhodamine B assay; type: functional; settings: SK-MEL-2, 48 h, read-out: ED50 (the source's name)
Streptococcus pyogenes [1] = assay: Antibacterial activity against […] resistant Streptococcus pyogenes 77A at 100 ug/ml after 18 hrs by serial dilution; type: functional, organism-based
Salmonella enterica = assay: Antibacterial activity against […] resistant Salmonella Typhimurium at 100 ug/ml after 18 hrs by serial dilution; type: functional, organism-based; settings: Salmonella enterica subsp. enterica serovar Typhimurium
Escherichia coli [2] = assay: Antibacterial activity against […] resistant Escherichia coli DC 2 at 100 ug/ml after 18 hrs by serial dilution; type: functional, organism-based
Enterobacter cloacae [3] = assay: Antibacterial activity against […] resistant Enterobacter cloacae P 99 at 100 ug/ml after 18 hrs by serial dilution; type: functional, organism-based
Escherichia coli [4] = assay: Antibacterial activity against […] resistant Escherichia coli DC 0 at 100 ug/ml after 18 hrs by serial dilution; type: functional, organism-based
Pseudomonas aeruginosa [5] = assay: Antibacterial activity against […] resistant Pseudomonas aeruginosa 1771M at 100 ug/ml after 18 hrs by serial dilution; type: functional, organism-based
Klebsiella aerogenes = assay: Antibacterial activity against […] resistant Klebsiella aerogenes 1522E at 100 ug/ml after 18 hrs by serial dilution; type: functional, organism-based
Escherichia coli [6] = assay: Antibacterial activity against […] resistant Escherichia coli TEM at 100 ug/ml after 18 hrs by serial dilution; type: functional, organism-based
Pseudomonas aeruginosa [7] = assay: Antibacterial activity against […] resistant Pseudomonas aeruginosa 1592E at 100 ug/ml after 18 hrs by serial dilution; type: functional, organism-based
Staphylococcus aureus [8] = assay: Antibacterial activity against […] resistant Staphylococcus aureus SG 511 at 100 ug/ml after 18 hrs by serial dilution; type: functional, organism-based
Enterobacter cloacae [9] = assay: Antibacterial activity against […] resistant Enterobacter cloacae 1321E at 100 ug/ml after 18 hrs by serial dilution; type: functional, organism-based
Pseudomonas aeruginosa [10] = assay: Antibacterial activity against […] resistant Pseudomonas aeruginosa 1771 at 100 ug/ml after 18 hrs by serial dilution; type: functional, organism-based
RAW264.7 [11] = assay: Antiinflammatory activity in mouse RAW264.7 cells assessed as inhibition of IL-6 production at 100 ug/ml; type: functional, cell-based
RAW264.7 [12] = assay: Antiinflammatory activity in mouse RAW264.7 cells assessed as inhibition of TNFalpha production at 100 ug/ml; type: functional, cell-based
Pseudomonas aeruginosa [13] = assay: Antibacterial activity against […] resistant Pseudomonas aeruginosa 9027 at 100 ug/ml after 18 hrs by serial dilution; type: functional, organism-based
Escherichia coli [14] = assay: Antibacterial activity against […] resistant Escherichia coli 078 at 100 ug/ml after 18 hrs by serial dilution; type: functional, organism-based
Staphylococcus aureus [15] = assay: Antibacterial activity against methicillin resistant Staphylococcus aureus 503 at 100 ug/ml after 18 hrs by serial dilution; type: functional, organism-based
Escherichia coli [16] = assay: Antibacterial activity against […] resistant Escherichia coli 1507E at 100 ug/ml after 18 hrs by serial dilution; type: functional, organism-based
Klebsiella oxytoca = assay: Antibacterial activity against […] resistant Klebsiella oxytoca 1082E at 100 ug/ml after 18 hrs by serial dilution; type: functional, organism-based
Enterococcus faecium = assay: Antibacterial activity against […] resistant Streptococcus faecium MD 8b at 100 ug/ml after 18 hrs by serial dilution; type: functional, organism-based
Staphylococcus aureus [17] = assay: Antibacterial activity against methicillin resistant Staphylococcus aureus 285 at 100 ug/ml after 18 hrs by serial dilution; type: functional, organism-based
RAW264.7 [18] = assay: Antiinflammatory activity in mouse RAW264.7 cells assessed as inhibition of NO production at 100 ug/ml; type: functional, cell-based
Streptococcus pyogenes [19] = assay: Antibacterial activity against […] resistant Streptococcus pyogenes 308A at 100 ug/ml after 18 hrs by serial dilution; type: functional, organism-based

SMILES: O=C(O)CCC/C=C/C=C/[C@@H]1C=C[C@@H]2CCC[C@H]2[C@H]1/C=C/C=C/C(=O)NCCc1ccccc1 [APLIDIC ACID B]
- EC50 (SK-OV-3): 13.5 µg/mL (≈ 29.4 µM)
- EC50 (XF498): 21.6 µg/mL (≈ 47 µM)
- EC50 (A549): 28.4 µg/mL (≈ 61.8 µM)
- EC50 (HCT-15): 13.5 µg/mL (≈ 29.4 µM)
- EC50 (SK-MEL-2): 11.4 µg/mL (≈ 24.8 µM)

SMILES: COc1cccc2c1C(=O)c1c(O)c3c(c(O)c1C2=O)C[C@@](O)(C(=O)CO)C[C@@H]3O[C@H]1C[C@H](N)[C@H](O)[C@H](C)O1 [DOXORUBICIN]
- EC50 (SK-OV-3): 0.003 µg/mL (≈ 0.00552 µM)
- EC50 (XF498): 0.029 µg/mL (≈ 0.0534 µM)
- EC50 (A549): 0.001 µg/mL (≈ 0.00184 µM)
- EC50 (HCT-15): 0.071 µg/mL (≈ 0.131 µM)
- EC50 (SK-MEL-2): 0.001 µg/mL (≈ 0.00184 µM)

SMILES: COC(=O)/C=C/C=C/[C@@H]1[C@@H]2CCC[C@H]2C=C[C@H]1/C=C/C=C/CCCC(=O)O [APLIDIC ACID A]
- Activity (Streptococcus pyogenes [1]): inactive
- EC50 (SK-OV-3): 15.2 µg/mL (≈ 41 µM)
- EC50 (XF498): 19.5 µg/mL (≈ 52.6 µM)
- Activity (Salmonella enterica): inactive
- Activity (Escherichia coli [2]): inactive
- Activity (Enterobacter cloacae [3]): inactive
- Activity (Escherichia coli [4]): inactive
- Activity (Pseudomonas aeruginosa [5]): inactive
- EC50 (A549): 25.2 µg/mL (≈ 68 µM)
- Activity (Klebsiella aerogenes): inactive
- Activity (Escherichia coli [6]): inactive
- Activity (Pseudomonas aeruginosa [7]): inactive
- Activity (Staphylococcus aureus [8]): inactive
- Activity (Enterobacter cloacae [9]): inactive
- EC50 (HCT-15): 12.4 µg/mL (≈ 33.5 µM)
- Activity (Pseudomonas aeruginosa [10]): inactive
- Activity (RAW264.7 [11]): inactive
- Activity (RAW264.7 [12]): inactive
- Activity (Pseudomonas aeruginosa [13]): inactive
- Activity (Escherichia coli [14]): inactive
- Activity (Staphylococcus aureus [15]): inactive
- Activity (Escherichia coli [16]): inactive
- Activity (Klebsiella oxytoca): inactive
- Activity (Enterococcus faecium): inactive
- Activity (Staphylococcus aureus [17]): inactive
- Activity (RAW264.7 [18]): inactive
- Activity (Streptococcus pyogenes [19]): inactive
- EC50 (SK-MEL-2): 11.6 µg/mL (≈ 31.3 µM)

SMILES: O=C(O)CCC/C=C/[C@@H]1C=C[C@@H]2CCC[C@H]2[C@H]1/C=C/C=C/C(=O)NCCc1ccccc1 [APLIDIC ACID C]
- EC50 (SK-OV-3): 14.7 µg/mL (≈ 33.9 µM)
- EC50 (XF498): 14 µg/mL (≈ 32.3 µM)
- EC50 (A549): 12.3 µg/mL (≈ 28.4 µM)
- EC50 (HCT-15): 12 µg/mL (≈ 27.7 µM)
- EC50 (SK-MEL-2): 14.5 µg/mL (≈ 33.4 µM)

SMILES: COC(=O)/C=C/C=C/[C@@H]1[C@@H]2CCC[C@H]2C=C[C@H]1/C=C/C=C/CCCC(=O)NCCC(=O)NCCc1c[nH]c2ccccc12 [APLIDIC ACID AMIDE A]
- EC50 (SK-OV-3): 17.2 µg/mL (≈ 29.5 µM)
- EC50 (XF498): 15.6 µg/mL (≈ 26.7 µM)
- EC50 (A549): 17.5 µg/mL (≈ 30 µM)
- EC50 (HCT-15): 13.5 µg/mL (≈ 23.1 µM)
- EC50 (SK-MEL-2): 11.7 µg/mL (≈ 20 µM)

From ChEMBL document CHEMBL1154318, “Bicyclic alpha,omega-dicarboxylic acid derivatives from a colonial tunicate of the family Polyclinidae” (2009)
